# Source: patent publication US12377119B2, “Natural killer cells” (IMPERIAL COLLEGE INNOVATIONS LIMITED, priority 2018, dated 2025)
# Entries after “also recorded” stand apart in the source; their conditions may differ.
# Legend:
# [1] = test system: NK cells; assay: NK cells development assay (Lin− bone marrow cells co-cultured with OP9 stromal cells, flow cytometry); type: cell-based, mouse
# Procedure: Mice. All mice used in this study were wild type on a C57BL/6 background, between six and twelve weeks old. All animal husbandry and experimental procedures were performed according to UK Home Office regulations and institute guidelines.
# OP9 cell line and cell culture. OP9 is a stromal cell line from mouse bone marrow known to support lymphocyte differentiation of hematopoietic progenitors when co-culturing with them. OP9-GFP cells were cultured in Iscove's Modified Dulbecco's Medium (IMDM) (Sigma-Aldrich) supplemented with 20% Fetal Bovine Serum (FBS) and 1% Penicillin/[…] (P/S). They were split into 24-well plates with 2500 cells per well two days before transferring Lin− cells onto them. Cells were kept in a 5% CO2 humidified atmosphere at 37 QC. Lineage negative cells isolation from bone marrow. Mouse leg and hip bones were crushed in Phosphate Buffered Saline (PBS) with 2% FBS to release bone marrow cells. Cell suspension was filtered through a […] strainer, topped up to 40 mL with PBS+2% FBS and centrifuged at 500×g for 4 minutes. Cells were resuspended in 2 mL PBS+2% FBS and stained with phycoerythrin (PE)-conjugated cocktail (20 μL anti-B220 (RA3/6B2), 20 μL anti-CD2 (RM2-5), 20 μL anti-Ter119 (TER119), 20 μL anti-NK1.1 (PK136), 5 μL anti-CD11b (M1/70) and 5 μL Gr1 (RB6-8C5) antibodies (all from eBioscience) for 5 minutes at 4° C. Then, cells were washed, centrifuged and incubated with anti-PE Microbeads (Miltenyi) for 15 minutes at 4° C. Next, cells were washed with PBS and passed through LD column (Miltenyi), enabling the negative selection of unstained Lin− cells that flowed through the column. 50 μL of cells were taken to check the purity after depletion using flow cytometry. In vitro NK cell development from lineage negative cells. Lin− cells were plated in 24-well plates with 5×10^5 cells in 1 mL of Dulbecco's Modified Eagle Medium (DMEM) (Sigma-Aldrich) supplemented with 10% embryonic stem cell-qualified FBS (ES-FBS), 1% P/S, 50 μM β-Mercaptoethanol (β-ME), 10 ng/ml Flt3-ligand (Flt3L) (R&D Systems), 10 ng/mL IL-7 (R&D Systems) and 100 ng/mL stem cell factor (SCF) (R&D Systems) per well and cultured for 2 days. Cells were transferred for co-culture with OP9-GFP stromal cells in 24-well plates with 3×10^4 cells in 1 mL of Alpha MEM (Sigma-Aldrich) supplemented with 20% ES-FBS, 1% P/S, 50 μM β-ME and 10 ng/mL IL-15 (R&D Systems) per well and cultured for […]. Compounds were added on day 2, at the same time as cells were transferred together with OP9. Supernatant was removed on day 5, and new media was added with compound. Cells were kept in a 5% CO2 humidified atmosphere at 37° C.
# Flow cytometry. After being cultured for 7 days, cells were harvested, filtered through 40 μm strainers to remove OP9 cells and washed with PBS. After centrifuging at 500×g for 5 minutes at 4° C., they were stained with appropriate fluorochrome conjugated antibodies with 1:300 dilution in 100 μL of fluorescent activated cell sorting (FACS) buffer (PBS with 1% BSA) for 15 minutes at 4° C. in the dark. Antibodies include CD3(e450), NK1.1(APC), NKp46(Percp e710) and PI, all of which are anti-mouse and from eBioscience. Cells were then washed in 1 ml FACS buffer, centrifuged and resuspended in 300 μL FACS buffer. Compensation was set up using Anti-Mouse Ig, k and Anti-Rat/Hamster Ig, k Compensation Particles Set (BDTM Combead). Flow cytometry analysis was carried out using BD LSRFortessa™ cell analyser (Becton Dickinson Bioscience) and data analysis was performed using FlowJo.
# The method of Example 7 was repeated using 5 μM of Compounds 7 and 11, and 5 and 10 μM of Compound 72.
# [2] = target: T1, REV-ERBα (Homo sapiens, UniProt P20393); assay: Dual-luciferase Bmal-luc reporter assay in HEK293T cells transfected with REV-ERBα; type: cell-based; details: 10 μM
# T1 construct: expressed in transfected cells; host or cells: HEK293T
# T1 sequence (P20393 1-614): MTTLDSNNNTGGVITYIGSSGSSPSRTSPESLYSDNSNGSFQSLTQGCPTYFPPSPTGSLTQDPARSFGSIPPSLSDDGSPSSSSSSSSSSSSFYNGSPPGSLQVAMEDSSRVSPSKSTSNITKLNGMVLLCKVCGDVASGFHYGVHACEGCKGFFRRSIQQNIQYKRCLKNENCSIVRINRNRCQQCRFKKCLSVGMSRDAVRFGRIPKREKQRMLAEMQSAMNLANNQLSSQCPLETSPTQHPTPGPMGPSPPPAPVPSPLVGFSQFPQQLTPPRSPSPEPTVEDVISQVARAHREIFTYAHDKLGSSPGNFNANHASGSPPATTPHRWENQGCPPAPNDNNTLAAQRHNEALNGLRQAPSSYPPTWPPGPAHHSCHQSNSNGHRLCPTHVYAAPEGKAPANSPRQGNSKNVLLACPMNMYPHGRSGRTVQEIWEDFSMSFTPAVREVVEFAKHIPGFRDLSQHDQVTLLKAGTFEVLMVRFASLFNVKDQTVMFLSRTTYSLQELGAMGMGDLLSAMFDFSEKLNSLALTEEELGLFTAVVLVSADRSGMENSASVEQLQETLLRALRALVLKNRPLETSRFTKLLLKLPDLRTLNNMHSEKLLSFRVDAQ
# Procedure: HEK293T cells were defrosted and maintained in DMEM supplemented with 10% FCS and 1% P/S at 37° C. and 5% CO2. Cells were plated in a 24-well plate (7·10^4 cells/well in 0.5 mL of DMEM+10% FCS). 24 h after seeding, cells were transfected with 100 ng of Bmal-luc, 10 ng of pRL-CMV Renilla as an internal control and 10 ng of REV-ERBα or the empty vector pcDNA3 as a control. All conditions were equalled to a total of 400 ng of DNA by using BSM. In order to prepare transfection samples, calculated amounts of DNA needed for each condition were prepared in Opti-MEM and Fugene was added in a 5:2 Fugene:DNA ratio. Mixtures were vortexed to assure homogeneity and left to incubate for 15 min at rt. Afterwards, each DNA mix was transferred into the 24-well plate containing the pre-seeded cells, with each condition repeated by triplicate. 5 h after transfection, cells were treated with compounds 2-12, AG1-AG5 or DMSO as vehicle. Solution of the compounds in DMEM were prepared at a double concentration than the final desired one, and 0.5 mL of these solutions were added to each well. 24 h after transfection, cells were lysed and luciferase activity was measured using Dual-Luciferase Reporter Assay System E2920 (Promega). To perform the experiment, cells were lysed by adding 50 μL of passive lysis buffer (PLB) (1:5 dilution) to each well and gently stirring for 30 min. Each cell lysate was transferred to a 96-well plate. 50 μL of Dual-Glo reagent were dispensed into each well, tapped gently to mix and incubated for 10 min. Luminescence of firefly luciferase was measured using a Tecan VICTOR Light Luminescent counter equipment. Then, 50 μL of Stop&Glo reagent were dispensed to quench firefly activity and activate Renilla luciferase, incubated for 10 min and measured. Firefly activity was normalized to Renilla luciferase activity. Results were analysed using Welch's corrected parametric t-test.
# (§1) The method of Example 2 was repeated using Compounds 70 to 72 (generated as described in Example 1). Compounds 4, 7 and 11 (tested in Example 2) were used as a positive control for REV-ERB inhibitory activity, agonist compound AG2 (also tested in Example 2) and DMSO were also tested as comparators.
# The method of Example 2 was repeated using Compounds 64 to 66, 69 and 70 to 73 (generated as described in Example 1). Once again, Compounds 4, 7 and 11 (tested in Example 2) were used as a positive control for REV-ERB inhibitory activity, agonist compound AG2 (also tested in Example 2) and DMSO were also tested as comparators.
# as §1, with “16” for “70”, “19, 27, 28 and 44” for “72”, “1). Once again,” for “1).”
# [3] = 5 μM, FIG. 10, compared with SR8278
# [4] = 10 μM, FIG. 9, compared with SR8278
# [5] = FIG. 10 legend, concentration not stated there (5 μM for 7 and 11, 5 and 10 μM for 72), compared with SR8278 and AG2
# [6] = FIG. 3, three independent experiments in triplicate, comparison with SR8278
# [7] = FIG. 4, two independent experiments in triplicate, comparison with SR8278
# [8] = FIG. 7, three independent experiments in triplicate
SMILES,"Total number of NK cells [1, 3]","Total number of NK cells [1, 4]","Total number of NK cells [1, 5]","Effect on REV-ERBα activity (Bmal-luc luciferase expression) [2, 6]","Effect on REV-ERBα activity (Bmal-luc luciferase expression) [2, 7]","Effect on REV-ERBα activity (Bmal-luc luciferase expression) [2, 8]","Total number of NK cells ([1]; 10 μM, FIG. 10, compared with SR8278)"
"CCOC(=O)C1Cc2ccccc2CN1C(=O)c1ccco1 (racemic) [Compound 7, Ethyl 2-(furan-2-carbonyl)-1,2,3,4-tetrahydrolsoquinoline-3-carboxylate]",significant increase in the total number of NK cells compared with SR8278,significant increase in NK cell number,significant increase in NK cell number,significant increase in luciferase expression compared with SR8278; also recorded: significant antagonistic activity,significant antagonistic activity,significant antagonistic activity,–
"CCOC(=O)C1Cc2ccccc2CN1C(=O)c1ccno1 (racemic) [Compound 8, Ethyl 2-(isoxazole-5-carbonyl)-1,2,3,4-tetrahydrolsoquinoline3-carboxylate]",–,–,–,significant increase in luciferase expression compared with SR8278; also recorded: significant antagonistic activity,–,–,–
"CCOC(=O)C1Cc2ccccc2CN1C(=O)c1ocnc1C (racemic) [Compound 11, Ethyl 2-(4-methyloxazole-5-carbonyl)-1,2,3,4-tetrahydrolsoquinoline-3-carboxylate]",significant increase in the total number of NK cells compared with SR8278,increase in the total number of NK cells compared with SR8278,significant increase in NK cell number,significant increase in luciferase expression compared with SR8278; also recorded: significant antagonistic activity,significant antagonistic activity,significant antagonistic activity,–
"CCOC(=O)C1Cc2ccccc2CN1C(=O)c1scnc1C (racemic) [Compound 12, Ethyl 2-(4-methylthiazole-5-carbonyl)-1,2,3,4-tetrahydrolsoquinoline-3-carboxylate]",–,–,–,significant increase in luciferase expression compared with SR8278; also recorded: significant antagonistic activity,–,–,–
CCOC(=O)C1Cc2ccccc2CN1C(=O)c1cccnc1F (racemic) [Compound 27],–,–,–,–,–,Inhibitory effect on REV-ERB was observed; also recorded: significant antagonistic activity,–
CCOC(=O)C1Cc2ccccc2CN1C(=O)c1ccnc(C)c1 (racemic) [Compound 28],–,–,–,–,–,Inhibitory effect on REV-ERB was observed; also recorded: significant antagonistic activity,–
CCOC(=O)CN(Cc1ccccc1)C(=O)c1ccco1 (racemic) [Compound 72],significant increase in the total number of NK cells compared with SR8278,–,significant increase in NK cell number,–,inhibitory effect on REV-ERB greater than that obtained using SR8278; also recorded: significant antagonistic activity,–,significant increase in the total number of NK cells compared with SR8278
CCOC(=O)C1Cc2ccccc2CN1C(=O)c1cccc2ccccc12 (centres unmarked) [AG1],–,–,–,agonists,–,–,–
CSc1ccc(C(=O)N2Cc3ccccc3CC2COc2ccc(OC(C)(C)C)cc2)s1 (centres unmarked) [AG5],–,–,–,agonists,–,agonist,–
